≈ marks a conversion by molar mass, not a printed value.
Columns and labels:
Human alphaherpesvirus 1 = assay: Antiviral activity against HSV1; format: functional, organism-based
Influenza A virus = assay: Antiviral activity against Influenza A virus (A/Hanfang/359/95(H3N2)); format: functional, organism-based
T-cell = assay: Inhibition of ConA-induced cell proliferation of BALB/c mouse T-lymphocytes assessed as reduction in [3H]thymidine incorporation incubated for 48 hrs by beta scintillation counting method; format: functional
SK-MEL-2 = assay: Cytotoxicity against human SK-MEL-2 cells; format: functional; settings: read-out: ED50 (the source's name)
XF498 = assay: Cytotoxicity against human XF498 cells; format: functional; settings: read-out: ED50 (the source's name)
SK-OV-3 = assay: Cytotoxicity against human SKOV3 cells; format: functional; settings: read-out: ED50 (the source's name)
HCT-15 = assay: Cytotoxicity against human HCT15 cells; format: functional; settings: read-out: ED50 (the source's name)
A549 = assay: Cytotoxicity against human A549 cells; format: functional; settings: read-out: ED50 (the source's name)
[1] = Antioxidant activity of the compound; format: functional
L5178Y = assay: Cytotoxicity against mouse L5178Y cells by MTT assay; format: functional, cell-based
Ruegeria atlantica = assay: […] activity against Ruegeria atlantica assessed as inhibition zone at 50 ug/disk; format: functional; settings: read-out: IZ
[2] = Inhibition of protein kinase A (unknown origin); parameters: species or system Homo sapiens
V79 = assay: Cytotoxicity against chinese hamster V79 cells; format: cell-based; settings: Cricetulus griseus
Saccharomyces cerevisiae = assay: Antifungal activity against Saccharomyces cerevisiae assessed as inhibition zone at 50 ug/disk; format: functional; settings: read-out: IZ
Staphylococcus aureus [3] = assay: Antibacterial activity against Staphylococcus aureus assessed as inhibition zone at 50 ug/disk; format: functional; settings: read-out: IZ
Escherichia coli [4] = assay: Antibacterial activity against Escherichia coli assessed as inhibition zone at 50 ug/disk; format: functional; settings: read-out: IZ
Mucor hiemalis = assay: Antifungal activity against Mucor hiemalis assessed as inhibition zone at 50 ug/disk; format: functional; settings: read-out: IZ
Pseudomonas aeruginosa = assay: Antibacterial activity against Pseudomonas aeruginosa ATCC 10145 after 24 hrs by serial dilution method; format: functional; settings: ATCC 10145, 24 h
Staphylococcus aureus [5] = assay: Antibacterial activity against Staphylococcus aureus ATCC 6538 after 24 hrs by serial dilution method; format: functional; settings: ATCC 6538, 24 h
Escherichia coli [6] = assay: Antibacterial activity against Escherichia coli ATCC 10536 after 24 hrs by serial dilution method; format: functional; settings: ATCC 10536, 24 h
Bacillus subtilis = assay: Antibacterial activity against Bacillus subtilis ATCC 6051 after 24 hrs by serial dilution method; format: functional; settings: ATCC 6051, 24 h
Micrococcus luteus [7] = assay: Antibacterial activity against Micrococcus luteus ATCC 9341 after 24 hrs by serial dilution method; format: functional; settings: ATCC 9341, 24 h
[8] = molecular target: Sodium-dependent noradrenaline transporter (Homo sapiens) (UniProt P23975); assay: Inhibition of norepinephrine transporter (unknown origin) at 10 uM
[9] = molecular target: Mu-type opioid receptor (Homo sapiens) (UniProt P35372); assay: Inhibition of mu opioid receptor (unknown origin) at 10 uM
[10] = molecular target: Sodium-dependent dopamine transporter (Homo sapiens) (UniProt Q01959); assay: Inhibition of dopamine transporter (unknown origin) at 10 uM
[11] = molecular target: Sodium-dependent serotonin transporter (Homo sapiens) (UniProt P31645); assay: Inhibition of serotonin transporter (unknown origin) at 10 uM
L1210 = assay: Cytotoxicity against mouse L1210 cells assessed as decrease in cell viability at 5 ug; format: functional
Micrococcus luteus [12] = assay: Antibacterial activity against Micrococcus luteus assessed as inhibition zone at 20 ug; format: functional; settings: read-out: IZ
SF-268 = assay: Cytotoxicity against human SF268 cells assessed as cell killing at 50 uM relative to control; format: functional
[13] = molecular target: C-X-C chemokine receptor type 4 (Rattus norvegicus) (UniProt O08565); assay: Antagonist activity at CXCR4 in rat GH4C1 cells assessed as inhibition of CXCL12-induced DNA synthesis at 10 uM after 72 hrs by BrdU incorporation assay; format: functional, cell-based
C6 = assay: Cytotoxicity against rat C6 cells assessed as decrease in cell viability; format: functional, cell-based
HeLa = assay: Cytotoxicity against human HeLa cells assessed as decrease in cell viability; format: functional, cell-based
[14] = molecular target: C-X-C chemokine receptor type 4 (Rattus norvegicus) (UniProt O08565); assay: Antagonist activity at CXCR4 in rat GH4C1 cells assessed as inhibition of CXCL12-induced cell migration at 0.1 uM after 72 hrs by BrdU incorporation assay; format: functional, cell-based
3T3-L1 = assay: Cytotoxicity against mouse 3T3L1 cells assessed as decrease in cell viability; format: cell-based

Sequence of Sodium-dependent noradrenaline transporter (Homo sapiens) (P23975 whole entry): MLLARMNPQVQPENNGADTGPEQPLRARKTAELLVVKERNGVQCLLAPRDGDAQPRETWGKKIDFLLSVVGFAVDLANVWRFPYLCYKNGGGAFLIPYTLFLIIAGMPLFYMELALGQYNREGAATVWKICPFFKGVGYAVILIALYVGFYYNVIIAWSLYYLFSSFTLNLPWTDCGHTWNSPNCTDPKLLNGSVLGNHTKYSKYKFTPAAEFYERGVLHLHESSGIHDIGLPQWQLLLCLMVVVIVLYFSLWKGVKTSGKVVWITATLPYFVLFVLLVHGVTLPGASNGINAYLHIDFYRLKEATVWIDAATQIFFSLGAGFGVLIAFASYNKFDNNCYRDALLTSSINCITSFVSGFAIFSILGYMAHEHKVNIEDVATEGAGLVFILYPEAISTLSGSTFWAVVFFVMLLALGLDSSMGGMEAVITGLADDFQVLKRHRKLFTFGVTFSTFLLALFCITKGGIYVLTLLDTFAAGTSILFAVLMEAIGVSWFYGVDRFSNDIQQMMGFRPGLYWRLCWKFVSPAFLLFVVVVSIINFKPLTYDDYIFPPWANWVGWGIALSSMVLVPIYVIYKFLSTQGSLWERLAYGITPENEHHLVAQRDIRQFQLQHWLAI
Sequence of Mu-type opioid receptor (Homo sapiens) (P35372 whole entry): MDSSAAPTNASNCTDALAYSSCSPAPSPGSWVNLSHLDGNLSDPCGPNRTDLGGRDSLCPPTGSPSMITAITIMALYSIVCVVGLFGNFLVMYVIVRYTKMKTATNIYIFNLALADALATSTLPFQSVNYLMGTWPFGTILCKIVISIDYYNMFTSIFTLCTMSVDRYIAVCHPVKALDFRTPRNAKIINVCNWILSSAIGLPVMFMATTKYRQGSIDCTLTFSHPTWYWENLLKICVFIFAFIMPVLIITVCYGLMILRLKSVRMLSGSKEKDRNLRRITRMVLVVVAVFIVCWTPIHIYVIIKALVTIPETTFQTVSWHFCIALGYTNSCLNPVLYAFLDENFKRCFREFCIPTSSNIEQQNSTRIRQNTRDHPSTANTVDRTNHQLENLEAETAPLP
Sequence of Sodium-dependent dopamine transporter (Homo sapiens) (Q01959 whole entry): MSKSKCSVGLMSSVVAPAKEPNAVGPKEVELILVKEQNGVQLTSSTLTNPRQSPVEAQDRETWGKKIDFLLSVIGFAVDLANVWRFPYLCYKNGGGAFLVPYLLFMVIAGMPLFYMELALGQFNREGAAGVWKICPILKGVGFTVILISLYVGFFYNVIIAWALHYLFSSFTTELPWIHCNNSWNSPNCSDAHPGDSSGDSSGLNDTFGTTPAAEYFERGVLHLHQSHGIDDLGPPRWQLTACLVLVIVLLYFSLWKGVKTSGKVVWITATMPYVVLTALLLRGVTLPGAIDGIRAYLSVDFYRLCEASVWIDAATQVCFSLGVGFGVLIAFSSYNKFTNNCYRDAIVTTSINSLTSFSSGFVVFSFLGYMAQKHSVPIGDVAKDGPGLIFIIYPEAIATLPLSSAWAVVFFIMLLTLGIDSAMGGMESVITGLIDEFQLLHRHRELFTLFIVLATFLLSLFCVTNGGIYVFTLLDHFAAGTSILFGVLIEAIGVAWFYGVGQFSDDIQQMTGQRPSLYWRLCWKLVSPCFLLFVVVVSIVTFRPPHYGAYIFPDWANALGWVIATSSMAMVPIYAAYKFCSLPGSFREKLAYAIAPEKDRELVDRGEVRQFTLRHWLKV
Sequence of C-X-C chemokine receptor type 4 (Rattus norvegicus) (O08565 whole entry): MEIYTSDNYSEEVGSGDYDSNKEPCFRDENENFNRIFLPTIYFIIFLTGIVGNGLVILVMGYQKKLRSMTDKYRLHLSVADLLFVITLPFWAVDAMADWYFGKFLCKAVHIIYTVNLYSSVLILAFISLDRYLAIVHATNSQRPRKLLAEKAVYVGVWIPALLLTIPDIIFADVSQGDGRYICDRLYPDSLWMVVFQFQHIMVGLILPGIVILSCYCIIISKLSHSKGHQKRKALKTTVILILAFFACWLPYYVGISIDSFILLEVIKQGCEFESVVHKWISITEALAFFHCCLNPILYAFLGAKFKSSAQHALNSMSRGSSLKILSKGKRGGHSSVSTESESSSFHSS
Sequence of Sodium-dependent serotonin transporter (Homo sapiens) (P31645 whole entry, looked up): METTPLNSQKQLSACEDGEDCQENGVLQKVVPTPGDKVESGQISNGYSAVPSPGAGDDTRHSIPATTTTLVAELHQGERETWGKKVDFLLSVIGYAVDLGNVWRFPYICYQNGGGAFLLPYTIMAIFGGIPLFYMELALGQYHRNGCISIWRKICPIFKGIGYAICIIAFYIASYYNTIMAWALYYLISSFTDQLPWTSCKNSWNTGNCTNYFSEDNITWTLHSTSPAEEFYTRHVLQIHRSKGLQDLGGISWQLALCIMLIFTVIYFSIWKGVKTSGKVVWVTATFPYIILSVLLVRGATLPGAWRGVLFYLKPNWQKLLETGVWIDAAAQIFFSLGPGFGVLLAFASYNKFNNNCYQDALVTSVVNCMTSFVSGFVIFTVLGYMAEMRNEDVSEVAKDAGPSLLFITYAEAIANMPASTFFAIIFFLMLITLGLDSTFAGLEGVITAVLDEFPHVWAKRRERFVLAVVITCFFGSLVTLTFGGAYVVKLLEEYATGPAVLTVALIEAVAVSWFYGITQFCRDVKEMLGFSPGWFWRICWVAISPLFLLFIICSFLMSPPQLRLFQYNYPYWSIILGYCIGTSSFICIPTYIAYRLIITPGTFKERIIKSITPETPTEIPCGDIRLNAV

Work on `C=C[C@@H](O)Cc1nsc(C2=CCCS[C@]23C(=O)Nc2ccccc23)n1` yielded an IC50 (Human alphaherpesvirus 1) of 33300 nM and an IC50 (Influenza A virus) of 33300 nM.
Work on `CO[C@H]1C[C@H](O[C@H]2[C@@H](OC)C[C@H](O[C@H]3[C@H](O)C[C@H](O[C@H]4[C@@H](OC)C[C@H](O[C@@H]5[C@@H](C)O[C@@]6(C[C@H]5OC)OCO[C@@H]5C[C@H](O[C@@H](C)[C@@]7(O)CC[C@H]8[C@@H]9CC=C%10C[C@@H](O)CC[C@]%10(C)[C@H]9CC[C@@]87C)O[C@H](C)[C@H]5O6)O[C@@H]4C)O[C@@H]3C)O[C@@H]2C)O[C@H](C)[C@H]1OC(C)=O` yielded an IC50 (T-cell) of 290 to 1970 nM.
`CC(C)CCCCC1=CN=CN2COC(=O)N12` showed an EC50 (SK-MEL-2) of 0.76 µg/mL (≈ 3.2 µM), an EC50 (XF498) of 0.7 µg/mL (≈ 2.95 µM) and an EC50 (SK-OV-3) of 0.36 µg/mL (≈ 1.52 µM). For the same compound, the EC50 (HCT-15) was 0.6 µg/mL (≈ 2.53 µM) and the EC50 (A549) was 0.62 µg/mL (≈ 2.61 µM).
Compound `CC[C@H](C)C1=C(O)[N@@+]2([O-])Oc3ccc(-c4c(O)c(O)c(-c5ccc(O)cc5)c(OC(C)=O)c4OC(C)=O)cc3O[C@@]2([C@@H](C)CC)C(=O)N1OC` has an IC50 [1] of 29100 nM.
In the case of `Nc1nsc(C(=O)c2ccc(O)cc2)n1`, the IC50 (L5178Y) is reported as 410 nM.
In the case of `COc1c(OC)c2c(c(CCN(C)C)c1SC)SSS2`, the zone of inhibition at 50 µg/disc (Ruegeria atlantica) is reported as 10.3 to 32.4 mm, the IC50 [2] is reported as > 25 µg/mL and the IC50 (V79) is reported as 190 nM. It also gave a zone of inhibition at 50 µg/disc (Saccharomyces cerevisiae) of 10.3 to 32.4 mm, a zone of inhibition at 50 µg/disc (Staphylococcus aureus [3]) of 10.3 to 32.4 mm and a zone of inhibition at 50 µg/disc (Escherichia coli [4]) of 10.3 to 32.4 mm. For the same compound, the zone of inhibition at 50 µg/disc (Mucor hiemalis) was 10.3 to 32.4 mm.
Work on `C=C[C@H](O)Cc1nsc(C2=CCCS[C@@]23C(=O)Nc2ccccc23)n1` yielded an IC50 (Human alphaherpesvirus 1) of 25900 nM.
`Cc1cc(=O)n2nc(CC(=O)c3ccccc3)nc2[nH]1` [ESSRAMYCIN] gave an MIC (Pseudomonas aeruginosa) of 1 to 8 µg/mL (≈ 3.73 to 29.8 µM), an MIC (Staphylococcus aureus [5]) of 1 to 8 µg/mL (≈ 3.73 to 29.8 µM) and an MIC (Escherichia coli [6]) of 1 to 8 µg/mL (≈ 3.73 to 29.8 µM). It also gave an MIC (Bacillus subtilis) of 1 to 8 µg/mL (≈ 3.73 to 29.8 µM) and an MIC (Micrococcus luteus [7]) of 1 to 8 µg/mL (≈ 3.73 to 29.8 µM).
With `COc1c(OC)c2c(c(CCN)c1SC)SSS2` the IC50 [2] was > 25 µg/mL.
`COC1=C[C@@H](C)O[C@@H](O[C@H]2CC[C@@]3(C)C(=CC[C@@H]4[C@@H]3CC[C@@]3(C)[C@H]4CC[C@]3(O)[C@H](C)O[C@H]3C[C@H]4OCO[C@@]5(C[C@@H](OC)[C@H](O[C@H]6C[C@H](OC)[C@H](O[C@H]7C[C@@H](O)[C@H](O[C@H]8C[C@H](OC)[C@H](O[C@H]9C[C@H](O)[C@H](OC(C)=O)[C@@H](C)O9)[C@@H](C)O8)[C@@H](C)O7)[C@@H](C)O6)[C@@H](C)O5)O[C@@H]4[C@@H](C)O3)C2)C1=O` showed an IC50 (T-cell) of 290 to 1970 nM.
`CC[C@H](C)C1=C(O)[N@+]2([O-])Oc3ccc(-c4c(O)c(O)c(-c5ccc(O)cc5)c(OC(C)=O)c4OC(C)=O)cc3O[C@@]2([C@@H](C)CC)C(=O)N1OC` gave an IC50 [1] of 25000 nM.
With `N=C(N)NCCCCCNc1noc(Cc2c[nH]c3ccccc23)n1` the inhibition [8] was 45%, the inhibition [9] was 97% and the inhibition [10] was 96%. For the same compound, the inhibition [11] was 16%.
Work on `COc1cc(CCN(C)C)c2sc3c(O)c(OC)cc(CCN(C)C)c3ssc2c1O` [LISSOCLIBADIN 4] yielded a zone of inhibition at 50 µg/disc (Staphylococcus aureus [3]) of 13.1 mm and a zone of inhibition at 50 µg/disc (Escherichia coli [4]) of 15.7 mm.
For `CN[C@@H]1CSCON2CCc3c([nH]c4ccc(O)c(Br)c34)[C@H]12`, the Activity (L1210) was 100% and the zone of inhibition at 20 µg/disc (Micrococcus luteus [12]) was 41 mm.
`CC[C@H](C)C1=C(O)[N@+]2([O-])Oc3ccc(-c4c(O)c(O)c(-c5ccc(OC(C)=O)cc5)c(OC(C)=O)c4OC(C)=O)cc3O[C@@]2([C@@H](C)CC)C(=O)N1O` showed an Activity (SF-268) of 96%.
`N=C(N)NCCCCCNc1noc(Cc2c[nH]c3cc(Br)ccc23)n1` showed an inhibition [13] of 50%, an inhibition [8] of 68% and an inhibition [9] of 103%. For the same compound, the inhibition [10] was 101%, the IC50 (C6) was 1500 nM and the IC50 (HeLa) was 1500 nM. It also gave an inhibition [14] of 100%, an inhibition [11] of 22% and an IC50 (3T3-L1) of 140 nM.
